This is an account of results in patent publication US10577378B2, “EIF4A-inhibiting compounds and methods related thereto” (eFFECTOR Therapeutics, Inc., priority 2015, dated 2020).

This experiment relates to MDA-MB-231 human breast cancer cells. Description: Cell proliferation assay (CellTiter-Glo, 72 hours treatment). It counts as cell-based. Particulars: Homo sapiens, read-out: MDA-MB-231 cell proliferation assay (IC50). A digest of the protocol: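 IC50 categories: under 100 nM +++, 100–1000 nM ++, above 1000 nM +, derived by sigmoidal curve fitting of CellTiter-Glo luminescence. Cells plated at 2,500 per well, dosed the following day and exposed 72 h at 37 °C versus DMSO control.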
For orientation: In ATP-based viability assays light output follows the ATP content of the culture.

Where [1] appears, read: MDA-MB-231 cells, 72 hours at 37° C., CellTiter-Glo.

Like-named read-outs stand apart in the source and are kept apart here.

Turning to `COc1cncc2c1[C@]1(O)[C@@H](CNCc3ccncc3)[C@H](CO)[C@@H](c3ccccc3)[C@]1(c1ccc(C#N)cc1)O2` (racemic) [188F, Rac-4-((4bR,5R,6R,7S,7aR)-4b-hydroxy-6-(hydroxymethyl)-4-methoxy-7-phenyl-5-(((pyridin-4-ylmethyl)amino)methyl)-4b,5,6,7-tetrahydro-7aH-cyclopenta[4,5]furo[2,3-c]pyridin-7a-yl)benzonitrile], the IC50 under setting [1] is less than 100 nM. Turning to `N#Cc1ccc([C@@]23Oc4cc(Cl)cnc4[C@]2(O)[C@H](O)[C@H](Sc2ccccn2)[C@H]3c2ccccc2)cc1` (racemic) [189F, Rac-4-((5aR,6S,7R,8S,8aS)-3-chloro-8,8a-dihydroxy-6-phenyl-7-(pyridin-2-ylthio)-6,7,8,8a-tetrahydro-5aH-cyclopenta[4,5]furo[3,2-b]pyridin-5a-yl)benzonitrile], the IC50 under setting [1] is 100 to 1000 nM.

As for `C#CC1(O)C(C(=O)N(C)C)[C@@H](c2ccccc2)[C@]2(c3ccc(Br)cc3)Oc3cc(Cl)cnc3[C@]12O` (mixture of isomers) [190F, rac-(5aR,6S,8aS)-5a-(4-bromophenyl)-3-chloro-8-ethynyl-8,8a-dihydroxy-N,N-dimethyl-6-phenyl-5a,7,8,8a-tetrahydro-6H-cyclopenta[4,5]furo[3,2-b]pyridine-7-carboxamide], under setting [1], the IC50 is 100 to 1000 nM. As to `CC#CC1(O)C(C(=O)N(C)C)[C@@H](c2ccccc2)[C@]2(c3ccc(Br)cc3)Oc3cc(Cl)cnc3[C@]12O` (mixture of isomers) [191F, Rac-(5aR,6S,8aS)-5a-(4-bromophenyl)-3-chloro-8,8a-dihydroxy-N,N-dimethyl-6-phenyl-8-(prop-1-yn-1-yl)-5a,7,8,8a-tetrahydro-6H-cyclopenta[4,5]furo[3,2-b]pyridine-7-carboxamide], the IC50 under setting [1] was 100 to 1000 nM.

In the case of `COc1cncc2c1[C@]1(O)C(=O)C(C(=O)N(C)C)[C@@H](c3ccccc3)[C@]1(c1ccc(Br)cc1)O2` (mixture of isomers) [192F, Rac-(4bR,7S,7aR)-7a-(4-bromophenyl)-4b-hydroxy-4-methoxy-N,N-dimethyl-5-oxo-7-phenyl-4b,6,7,7a-tetrahydro-5H-cyclopenta[4,5]furo[2,3-c]pyridine-6-carboxamide], where the note is “MDA-MB-231, 72 h”, the IC50 was more than 1000 nM. With `COC(=O)[C@@H]1C(c2ccccc2)[C@]2(c3ccc(I)cc3)Oc3cncc(OC)c3[C@]2(O)[C@@H]1O` (mixture of isomers) [193F, Rac-Methyl (4bS,5R,6R,7aR)-4b,5-dihydroxy-7a-(4-iodophenyl)-4-methoxy-7-phenyl-4b,6,7,7a-tetrahydro-5H-cyclopenta[4,5]furo[2,3-c]pyridine-6-carboxylate], the IC50 under setting [1] lay in the range of 100 to 1000 nM. Consider `COc1cncc2c1[C@]1(O)[C@H](O)[C@H](CN3CCN(C(C)=O)CC3)[C@@H](c3ccccc3)[C@]1(c1ccc(C#N)cc1)O2` (racemic) [194F, Rac-4-((4bS,5R,6S,7S,7aR)-6-((4-acetylpiperazin-1-yl)methyl)-4b,5-dihydroxy-4-methoxy-7-phenyl-4b,5,6,7-tetrahydro-7aH-cyclopenta[4,5]furo[2,3-c]pyridin-7a-yl)benzonitrile], for which the IC50 under setting [1] is more than 1000 nM. The same measure, in the same setting: then `COc1nc(Cl)cc2c1[C@]1(O)[C@H](O)[C@H](CNCC(F)F)[C@@H](c3ccccc3)[C@]1(c1ccc(C#N)cc1)O2` (racemic) [196F, Rac-4-((5aR,6S,7S,8R,8aS)-3-chloro-7-(((2,2-difluoroethyl)amino)methyl)-8,8a-dihydroxy-1-methoxy-6-phenyl-6,7,8,8a-tetrahydro-5aH-cyclopenta[4,5]furo[3,2-c]pyridin-5a-yl)benzonitrile], with less than 100 nM; and `COc1nc(C#N)cc2c1[C@]1(O)[C@H](O)[C@H](CNCC(F)F)[C@@H](c3ccccc3)[C@]1(c1ccc(C#N)cc1)O2` (racemic) [197F, Rac-(5aR,6S,7S,8R,8aS)-5a-(4-cyanophenyl)-7-(((2,2-difluoroethyl)amino)methyl)-8,8a-dihydroxy-1-methoxy-6-phenyl-5a,7,8,8a-tetrahydro-6H-cyclopenta[4,5]furo[3,2-c]pyridine-3-carbonitrile], with 100 to 1000 nM; and `COc1nc(C#N)cc2c1[C@]1(O)[C@H](O)[C@H](CN3CCN(C)CC3)[C@@H](c3ccccc3)[C@]1(c1ccc(C#N)cc1)O2` (racemic) [198Fb, Rac-(5aR,6S,7S,8R,8aS)-5a-(4-cyanophenyl)-8,8a-dihydroxy-1-methoxy-7-((4-methylpiperazin-1-yl)methyl)-6-phenyl-5a,7,8,8a-tetrahydro-6H-cyclopenta[4,5]furo[3,2-c]pyridine-3-carbonitrile], with less than 100 nM. On the same count and under the same terms, for `COc1nc(Cl)cc2c1[C@]1(O)[C@@H](CN3CCOCC3)[C@H](CO)[C@@H](c3ccccc3)[C@]1(c1ccc(Br)cc1)O2` (racemic) [199F, Rac-(5aR,6S,7R,8R,8aR)-5a-(4-bromophenyl)-3-chloro-7-(hydroxymethyl)-1-methoxy-8-(morpholinomethyl)-6-phenyl-5a,6,7,8-tetrahydro-8aH-cyclopenta[4,5]furo[3,2-c]pyridin-8a-ol] the value was less than 100 nM; for `COc1nc(C#N)cc2c1[C@]1(O)[C@@H](CN3CCOCC3)[C@H](CO)[C@@H](c3ccccc3)[C@]1(c1ccc(C#N)cc1)O2` (racemic) [200F, Rac-(5aR,6S,7R,8R,8aR)-5a-(4-cyanophenyl)-8a-hydroxy-7-(hydroxymethyl)-1-methoxy-8-(morpholinomethyl)-6-phenyl-5a,7,8,8a-tetrahydro-6H-cyclopenta[4,5]furo[3,2-c]pyridine-3-carbonitrile], less than 100 nM. Same read-out and setting: then `COc1cncc2c1[C@]1(O)[C@@H](CN3CC4(COC4)C3)[C@H](CO)[C@@H](c3ccccc3)[C@]1(c1ccc(C#N)cc1)O2` (racemic) [202F, Rac-4-((4bR,5R,6R,7S,7aR)-5-((2-oxa-6-azaspiro[3.3]heptan-6-yl)methyl)-4b-hydroxy-6-(hydroxymethyl)-4-methoxy-7-phenyl-4b,5,6,7-tetrahydro-7aH-cyclopenta[4,5]furo[2,3-c]pyridin-7a-yl)benzonitrile], with less than 100 nM; and `COc1cncc2c1[C@]1(O)[C@@H](CNCc3ccnn3C)[C@H](CO)[C@@H](c3ccccc3)[C@]1(c1ccc(Br)cc1)O2` (racemic) [203F, Rac-(4bR,5R,6R,7S,7aR)-7a-(4-bromophenyl)-6-(hydroxymethyl)-4-methoxy-5-((((1-methyl-1H-pyrazol-5-yl)methyl)amino)methyl)-7-phenyl-5,6,7,7a-tetrahydro-4bH-cyclopenta[4,5]furo[2,3-c]pyridin-4b-ol], with less than 100 nM.

As for `COc1cncc2c1[C@]1(O)[C@@H](CNCc3ccnn3C)[C@H](CO)[C@@H](c3ccccc3)[C@]1(c1ccc(C#N)cc1)O2` (racemic) [204F, Rac-4-((4bR,5R,6R,7S,7aR)-4b-hydroxy-6-(hydroxymethyl)-4-methoxy-5-((((1-methyl-1H-pyrazol-5-yl)methyl)amino)methyl)-7-phenyl-4b,5,6,7-tetrahydro-7aH-cyclopenta[4,5]furo[2,3-c]pyridin-7a-yl)benzonitrile], under setting [1], the IC50 is less than 100 nM.

Regarding `COc1cncc2c1[C@]1(O)[C@@H](CN(C)C)[C@H](CO)[C@@H](c3ccccc3)[C@]1(c1ccc(Br)cc1)O2` (racemic) [205F, Rac-(4bR,5R,6R,7S,7aR)-7a-(4-bromophenyl)-5-((dimethylamino)methyl)-6-(hydroxymethyl)-4-methoxy-7-phenyl-5,6,7,7a-tetrahydro-4bH-cyclopenta[4,5]furo[2,3-c]pyridin-4b-ol], under setting [1], the IC50 was less than 100 nM. The same measure, in the same setting: then `COc1cncc2c1[C@]1(O)[C@@H](CN(C)C)[C@H](CO)[C@@H](c3ccccc3)[C@]1(c1ccc(C#N)cc1)O2` (racemic) [206F, Rac-4-((4bR,5R,6R,7S,7aR)-5-((dimethylamino)methyl)-4b-hydroxy-6-(hydroxymethyl)-4-methoxy-7-phenyl-4b,5,6,7-tetrahydro-7aH-cyclopenta[4,5]furo[2,3-c]pyridin-7a-yl)benzonitrile], with less than 100 nM. Still for that read-out and setting: for `COc1nc(C#N)cc2c1[C@]1(O)[C@H](O)[C@H](CN3CC(F)(F)C3)[C@@H](c3ccccc3)[C@]1(c1ccc(C#N)cc1)O2` (racemic) [207Fa, Rac-(5aR,6S,7S,8R,8aS)-5a-(4-cyanophenyl)-7-((3,3-difluoroazetidin-1-yl)methyl)-8,8a-dihydroxy-1-methoxy-6-phenyl-5a,7,8,8a-tetrahydro-6H-cyclopenta[4,5]furo[3,2-c]pyridine-3-carbonitrile] the value was 100 to 1000 nM. With `COc1nc(Cl)cc2c1[C@]1(O)[C@H](O)[C@H](CN3CC(F)(F)C3)[C@@H](c3ccccc3)[C@]1(c1ccc(C#N)cc1)O2` (racemic) [207Fb, Rac-4-((5aR,6S,7S,8R,8aS)-3-chloro-7-((3,3-difluoroazetidin-1-yl)methyl)-8,8a-dihydroxy-1-methoxy-6-phenyl-6,7,8,8a-tetrahydro-5aH-cyclopenta[4,5]furo[3,2-c]pyridin-5a-yl)benzonitrile], the IC50 under setting [1] is 100 to 1000 nM.

For the compound `COc1nc(C#N)cc2c1[C@]1(O)[C@H](O)[C@H](CN(C)CC(F)F)[C@@H](c3ccccc3)[C@]1(c1ccc(C#N)cc1)O2` (racemic) [208Fa, Rac-(5aR,6S,7S,8R,8aS)-5a-(4-cyanophenyl)-7-(((2,2-difluoroethyl)(methyl)amino)methyl)-8,8a-dihydroxy-1-methoxy-6-phenyl-5a,7,8,8a-tetrahydro-6H-cyclopenta[4,5]furo[3,2-c]pyridine-3-carbonitrile], the IC50 under setting [1] fell in the range of 100 to 1000 nM.

With `COc1nc(Cl)cc2c1[C@]1(O)[C@H](O)[C@H](CN(C)CC(F)F)[C@@H](c3ccccc3)[C@]1(c1ccc(C#N)cc1)O2` (racemic) [208Fb, Rac-4-((5aR,6S,7S,8R,8aS)-3-chloro-7-(((2,2-difluoroethyl)(methyl)amino)methyl)-8,8a-dihydroxy-1-methoxy-6-phenyl-6,7,8,8a-tetrahydro-5aH-cyclopenta[4,5]furo[3,2-c]pyridin-5a-yl)benzonitrile], under setting [1], the IC50 lay within 100 to 1000 nM.
